Columns and labels:
[1] = tested on: IL-1; assay: Peak serum IL-1 in endotoxemic mice (ELISA); type: in vivo, Balb/C mice; settings: pretreatment, data not shown
Procedure: (§1) Endotoxin shock. Mice were injected with endotoxin (Escherichia coli lipopolysaccharide, LPS 0111:B4; Sigma Chemical Co, St. Louis, Mo.) that was dissolved in sterile pyrogen-free saline at stock concentrations of 10 mg/ml. LPS solutions were sonicated for 20 min immediately prior to use for each experiment. Mice received an LD75 dose of LPS (5 mg/kg, i.p.). Blood was collected at different times after LPS administration, allowed to clot for 2 h at room temperature, then centrifuged for 20 min at 1,500 g. Serum samples were stored at […] prior to analysis. Mortality was recorded for up to 3 weeks after injection to ensure that no additional late deaths occurred.
(§2) Cytokine measurements. TNF concentration in mouse serum and in conditioned media from RAW 264.7 cell cultures was measured by ELISA (minimum detectable concentration=10 pg/ml). […] Mouse serum IL-6 and IL-1β levels were measured using ELISA kits (R&D Systems, Inc., Minneapolis, Minn.). HMGB-1 was analyzed by western blot as previously described by Wang et al, 1999. […] Protein was electroblotting to Immun-blot PVDF membrane (Bio-rad, Hercules Calif.) and HMGB-1 was analyzed using polyclonal 241 antibody and secondary anti-rabbit horseradish peroxidase (Amersham, Pitscataway, N.J.). Standard curves were constructed using r-HMGB-1, and the intensity of the 30 kD band analyzed by densitometry. […]

[2] = tested on: TNF; assay: Serum TNF in endotoxemic mice (ELISA); type: in vivo, Balb/C mice; settings: 2 hours after LPS
Procedure: as §1, §2

[3] = Stability of pyruvate esters in aqueous solution; type: physicochemical; settings: in the presence of calcium salts; compared with sodium pyruvate
[4] = tested on: Caco-2 human enterocytes; assay: Cytomix-induced hyperpermeability of Caco-2 monolayers (FD4 clearance); type: cell-based; settings: 48 h incubation with cytomix (IFN-γ, IL-1β, TNF-α); both of the highest concentrations; P<0.001
Procedure: To test for the effect of ethyl pyruvate on a stabilizing calcium salt solution (REPS) in a cytokine-induced intestinal epithelial hyperpermeability condition, an in vitro model of intestinal epithelial injury due to inflammation, such as might occur in cases of inflammatory bowel disease (i.e., Crohn's disease or ulcerative colitis) was used.
Exemplary materials and methods include the following, while minor modifications can be made: Caco-2 human enterocytes (10^5 cells/well) were plated on permeable filters in 12-well Transwell bicameral chambers (COSTAR, Corning, N.Y.) and fed biweekly. Permeability studies were carried out using confluent monolayers between 21-28 d after seeding. The permeability probe was FITC-labeled dextran (4400 Da; FD4). A sterile stock solution of FD4 (25 mg/ml) was prepared by dissolving the compound in HEPES-buffered DMEM complete medium (pH 6.8) and passing it through a filter ([…] pore size). For permeability studies, the medium was aspirated from the apical and basolateral sides of the Transwell chambers. FD4 solution (200 μl) was added to the apical compartments. […] (Menconi et al., Am. J. Physiol. (1997) 272:G1007-G1021.) The permeability of monolayers was expressed as a clearance (C), which was calculated as previously described. […]

[5] = tested on: HMGB-1; assay: Serum HMGB-1 in endotoxemic mice (western blot); type: in vivo, Balb/C mice; settings: for serum HMGB1: pretreatment 40 mg/kg 30 min before LPS, measured 20 hours after onset of endotoxemia
Procedure: as §1
Cytokine measurements. TNF concentration in mouse serum and in conditioned media from RAW 264.7 cell cultures was measured by ELISA (minimum detectable concentration=10 pg/ml). Recombinant mouse TNF standards were obtained from R&D Systems (Inc., Minneapolis, Minn.) and dissolved in 0.1% bovine serum albumin solution (BSA, low endotoxin grade from Sigma Chemical Co., St. Louis, Mo.). Monoclonal antibody to mouse TNF was purchased from Biosource International, Inc., Camarillo, Calif. Human TNF monoclonal antibody, human TNF antiserum and mouse TNF antiserum were prepared and contributed by Dr. Christine Metz. Mouse serum IL-6 and IL-1β levels were measured using ELISA kits (R&D Systems, Inc., Minneapolis, Minn.). HMGB-1 was analyzed by western blot as previously described by Wang et al, 1999. […] Protein was electroblotting to Immun-blot PVDF membrane (Bio-rad, Hercules Calif.) and HMGB-1 was analyzed using polyclonal 241 antibody and secondary anti-rabbit horseradish peroxidase (Amersham, Pitscataway, N.J.). Standard curves were constructed using r-HMGB-1, and the intensity of the 30 kD band analyzed by densitometry. […]
The therapeutic efficacy of the delayed administration of ethyl pyruvate after the onset of endotoxemia was assessed. […]

[6] = tested on: HMGB-1; assay: HMGB-1 release from LPS-stimulated RAW264.7 macrophage cultures (western blot); type: cell-based, murine
Procedure: Cell Culture. BALB/c murine macrophage-like RAW 264.7 cells obtained from the American Type Culture Collection (ATCC Number TIB-71, ATCC, Rockville, Mass.) (61), were cultured in RPMI 1640 (Life Technologies, Grand Island, N.Y.) supplemented with 10% heat inactivated fetal bovine serum (Gemini, Calabasas, Calif.), 2 mM glutamine (Cat. # 25030-149, Gibco BRL, Rockville, Mass.) and antibiotic-antimycotic mix (Cat. # 15240-062, Gibco BRL, Rockville, Mass.) in a humidified incubator with 5% CO2. Cells were mechanically removed and resuspended in serum-free Opti-MEM I medium (Life Technology, Grand Island, N.Y.) to perform experiments at 75% confluence.
as §2

With `CCOC(=O)C(C)=O` [ethyl pyruvate] the “peak serum level of IL-1” value [1] was “attenuated”, the “serum TNF” value ([2]; pretreatment 40 mg/kg 30 min before LPS 5 mg/kg i.p., vehicle printed 17+/−4, P<0.05) was 39+−6 ng TNF/ml and the “release of serum TNF (in words)” value ([2]; pretreatment 40 mg/kg) was “significantly attenuates the release of serum TNF”. For the same compound, the “stability of aqueous solution” value [3] was “more stable aqueous solution than sodium pyruvate”, the “cytomix-induced hyperpermeability of Caco-2 monolayers (FD4 clearance)” value [4] was “significantly decreased cytomix-induced hyperpermeability” and the “systemic release of HMGB-1 (serum)” value ([5]; delayed treatment beginning 4 hours post-LPS, measured at 20 hours) was “significantly attenuated the systemic release of HMGB-1”. For the same compound, the “serum HMGB1” value [5] was “significantly attenuated”, the “serum HMGB1” value ([5]; listed as Ethyl pyruvate) was “significantly inhibits serum HMGB-1 levels” and the “total intracellular (cell associated) HMGB1 protein concentration” value ([6]; RAW264.7 cells treated with 1, 5 or 10 mM, 10 or 20 h) was “did not significantly influence total intracellular HMGB1 protein concentration”. The “LPS-induced HMGB-1 release” value ([6]; conditioned media, overnight (24 hrs) endotoxin exposure) was “significantly prevented LPS-induced HMGB-1 release in a concentration dependent manner”.
